Data as given in US20250152719A1, “FUSED IMIDE DERIVATIVE” (Chia Tai Tianqing Pharmaceutical Group Co., Ltd., priority 2021, published 2025).

How the values were obtained:
Assay type in all cases: cell-based
BTK = BTK (Homo sapiens (Human), UniProt Q06187); assay: BTK degradation in OCI-LY10 cells (Total-BTK HTRF kit); conditions: 24 (or 6) h incubation; for DC50 / BTK degradation in OCI-LY10 cells Dmax: OCI-LY10 cells; for DC50: DC50 = concentration when degradation rate reaches 50%, read-out: OCI-LY10 cell BTK degradation DC50; for Dmax: OCI-Ly10, OCI-LY10 cells; for Dmax / BTK degradation in OCI-LY10 cells Dmax: maximum degradation rate
Sequence of BTK (Q06187 whole entry): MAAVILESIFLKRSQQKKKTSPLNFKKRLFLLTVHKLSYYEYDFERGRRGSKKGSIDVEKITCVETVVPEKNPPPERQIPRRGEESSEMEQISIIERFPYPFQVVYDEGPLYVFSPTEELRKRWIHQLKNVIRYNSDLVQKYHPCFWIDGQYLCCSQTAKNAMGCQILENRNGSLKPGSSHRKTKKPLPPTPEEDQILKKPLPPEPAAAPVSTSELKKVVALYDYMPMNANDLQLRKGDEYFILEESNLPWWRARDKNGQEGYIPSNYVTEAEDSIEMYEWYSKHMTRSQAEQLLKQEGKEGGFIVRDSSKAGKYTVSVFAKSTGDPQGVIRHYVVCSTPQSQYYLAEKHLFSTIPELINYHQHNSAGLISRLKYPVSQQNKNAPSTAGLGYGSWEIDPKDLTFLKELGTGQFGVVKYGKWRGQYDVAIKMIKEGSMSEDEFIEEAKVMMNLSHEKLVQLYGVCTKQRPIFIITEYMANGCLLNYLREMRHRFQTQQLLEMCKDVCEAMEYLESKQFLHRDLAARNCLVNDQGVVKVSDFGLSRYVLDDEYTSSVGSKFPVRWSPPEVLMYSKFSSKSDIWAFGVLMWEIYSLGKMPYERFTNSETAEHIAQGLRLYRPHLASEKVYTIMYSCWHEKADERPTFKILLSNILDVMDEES
Description: The detection was carried out using the Total-BTK Kits (cisbio, 63ADK064PEH), and 4× Supplemented Lysis buffer was prepared using the Blocking reagent stock solution (100×) and Lysis buffer stock solution (4×). Premixed antibody solutions were prepared using the Detection buffer, Total-BTK d2 antibody, and Total-BTK Eu Cryptate antibody.
OCI-LY10 cells in a good growth state were collected and added to a centrifuge tube, adjusted to a cell density of 4.17×10^6 cells/mL, and seeded in a 384-well plate (12 μL/well). The cells were incubated overnight in a cell incubator. Compounds were added using a nanoliter pipettor such that the final concentrations of the compounds were 100 nM-0.098 nM; the addition was performed in duplicate, and meanwhile, a control was set. After another 24 (or 6) h of incubation in the cell incubator, the 4× Supplemented Lysis buffer was added at 4 μL/well to lyse the cells. After the cells were shaken for 40 min at room temperature, the Premixed antibody solutions were added at 4 μL/well, and the cells were left to stand overnight at room temperature. Fluorescence values of the cells were detected at 665 nm/620 nm using an Envision microplate reader, the four-parameter analysis was performed, the dose-response curves were fit, and DC50 (the concentration of the drug when the degradation rate reaches 50%) and Dmax (the maximum degradation rate) were calculated.

OCI-LY10 cells = assay: Inhibitory activity on OCI-LY10 cell proliferation (CCK-8); conditions: Homo sapiens, OCI-Ly10, 72 h incubation
Description: (§1) OCI-LY10 cells in a good growth state were collected and added to a centrifuge tube, adjusted to a cell density of 1×10^5 cells/mL, and seeded in a 96-well plate (100 μL/well). The cells were incubated overnight in a cell incubator. Compounds were added using a nanoliter pipettor such that the final concentrations of the compounds were 5000 nM-0.31 nM; the addition was performed in duplicate, and meanwhile, a control was set. After another 72 h of incubation in the cell incubator, 10 μL of CCK-8 (CK04, PP799) was added. After 2.5 h of incubation in the cell incubator, absorbance values were detected at 450 nm using an Envision microplate reader, the four-parameter analysis was performed, the dose-response curves were fit, and IC50 was calculated.

TMD8-BTK(C481S) cells = assay: Inhibitory activity on TMD8-BTK(C481S) cell proliferation (CCK-8); conditions: 72 h incubation
Description: as §1, with “TMD8-BTK(C481S)” for “OCI-LY10”, “8×10^4” for “1×10^5”, “4” for “2.5”

Row | Dmax (BTK) | BTK degradation in OCI-LY10 cells Dmax (BTK) | Compound | IC50 (TMD8-BTK(C481S) cells; 72 h) | also measured
1 |  | >90% | CN1CCN([C@@H]2CCCN(c3cnc(C(N)=O)c(Nc4ccc(C5C[C@@H]6CN(CC7Cc8ccc9c(C%10CCC(=O)NC%10=O)noc9c8C7)C[C@@H]6C5)cc4)n3)C2)C1=O (stereo partly drawn) [Compound 49] |  | IC50 (TMD8-BTK(C481S) cells): 6.8 nM
2 |  | >90% | CN1CCN([C@@H]2CCCN(c3cnc(C(N)=O)c(Nc4ccc(C5CCC6(CC5)CCN(CC5Cc7ccc8c(C9CCC(=O)NC9=O)noc8c7C5)CC6)cc4)n3)C2)C1=O (stereo partly drawn) [Compound 51] |  | IC50 (TMD8-BTK(C481S) cells): 4.7 nM
3 |  | >90% | CN1CCN([C@@H]2CCCN(c3cnc(C(N)=O)c(Nc4ccc(C5CCC6(CC5)CN(CC5Cc7ccc8c(C9CCC(=O)NC9=O)noc8c7C5)C6)cc4)n3)C2)C1=O (stereo partly drawn) [Compound 52] | 3.7 nM | 
4 | > 90% |  | CN1CCN(C2CCCN(c3cnc(C(N)=O)c(Nc4ccc(C5CCC6(CC5)CN(C5Cc7ccc8c(C9CCC(=O)NC9=O)noc8c7C5)C6)cc4)n3)C2)C1=O (stereo not drawn) [Compound 54] | 9.7 nM | 
5 |  | >90% | CN1CCN(C2CCCN(c3cnc(C(N)=O)c(Nc4ccc(C5CCC6(CC5)CN(C5Cc7ccc8c(C9CCC(=O)NC9=O)noc8c7C5)C6)cc4)n3)C2)C1=O (stereo not drawn) [Compound 55] |  | IC50 (TMD8-BTK(C481S) cells): 6.1 nM
6 | > 90% |  | CN1CCN([C@@H]2CCCN(c3cnc(C(N)=O)c(Nc4ccc(C5CCC6(CC5)CC(N5Cc7ccc8c(C9CCC(=O)NC9=O)noc8c7C5)C6)cc4)n3)C2)C1=O (stereo partly drawn) [Compound 56] | 33 nM | 
7 | > 90% |  | CN1CCN([C@@H]2CCCN(c3cnc(C(N)=O)c(Nc4ccc(C5CCC6(CC5)CC(N5CCc7ccc8c(C9CCC(=O)NC9=O)noc8c7C5)C6)cc4)n3)C2)C1=O (stereo partly drawn) [Compound 57] |  | 
8 | > 90% |  | CN1CCN([C@@H]2CCCN(c3cnc(C(N)=O)c(Nc4ccc(C5CCC6(CC5)CC(N5CCc7c(ccc8c(C9CCC(=O)NC9=O)noc78)C5)C6)cc4)n3)C2)C1=O (stereo partly drawn) [Compound 58] | 21 nM | 
9 | > 90% |  | NC(=O)c1ncc(N2CCCCC2)nc1Nc1ccc(C2CCN(CC3Cc4ccc5c(C6CCC(=O)NC6=O)noc5c4C3)CC2)cc1 (stereo not drawn) [Compound 76] |  | IC50 (TMD8-BTK(C481S) cells): 11 nM
10 |  | >90% | CN1CCN([C@@H]2CCCN(c3cnc(C(N)=O)c(Nc4ccc5c(c4)CCC4(CCN(CC6Cc7ccc8c(C9CCC(=O)NC9=O)noc8c7C6)CC4)O5)n3)C2)C1=O (stereo partly drawn) [Compound 78] |  | 
11 | > 90% |  | CN1CCN([C@@H]2CCCN(c3cnc(C(N)=O)c(Nc4ccc5c(c4)OC[C@H]4CN(CC6Cc7ccc8c(C9CCC(=O)NC9=O)noc8c7C6)CCN54)n3)C2)C1=O (stereo partly drawn) [Compound 86] |  | 
12 |  | >90% | CN1CCN([C@@H]2CCCN(c3cnc(C(N)=O)c(Nc4ccc(C5CCN(C6Cc7ccc8c(C9CCC(=O)NC9=O)noc8c7C6)CC5)cc4)n3)C2)C1=O (stereo partly drawn) [Compound 88] |  | IC50 (TMD8-BTK(C481S) cells): 29 nM
13 |  | >90% | CN1CCN([C@@H]2CCCN(c3cnc(C(N)=O)c(Nc4ccc(C5CCN(C[C@H]6C[C@H](n7ccc8c9c(C%10CCC(=O)NC%10=O)noc9ccc87)C6)CC5)cc4)n3)C2)C1=O (stereo partly drawn) [Compound 98-1] |  | 
14 |  | >90% | NC(=O)c1ncc(N2CCCCC2)nc1Nc1ccc(C2CCN(C[C@H]3C[C@@H](n4ccc5c6c(C7CCC(=O)NC7=O)noc6ccc54)C3)CC2)cc1 (stereo partly drawn) [Compound 99-1] |  | 
15 |  | >90% | CN1CCN([C@@H]2CCCN(c3cnc(C(N)=O)c(Nc4ccc(C5CCN([C@H]6CC[C@@H](n7ccc8c9c(C%10CCC(=O)NC%10=O)noc9ccc87)CC6)CC5)cc4)n3)C2)C1=O (stereo partly drawn) [Compound 102-1] |  | 
16 |  | 97.11% | CN1CCN([C@@H]2CCCN(c3cnc(C(N)=O)c(Nc4ccc(C5CCN([C@H]6CC[C@H](n7ccc8c9c(C%10CCC(=O)NC%10=O)noc9ccc87)CC6)CC5)cc4)n3)C2)C1=O (stereo partly drawn) [Compound 102-2] |  | DC50 (BTK): < 0.098 nM
17 |  | >90% | NC(=O)c1ncc(N2CCCCC2)nc1Nc1ccc(C2CCN([C@H]3CC[C@H](n4ccc5c6c(C7CCC(=O)NC7=O)noc6ccc54)CC3)CC2)cc1 (stereo partly drawn) [Compound 103-2] |  | 

Continued, molecule first:

Row | Compound | Dmax (BTK) | BTK degradation in OCI-LY10 cells Dmax (BTK) | IC50 (TMD8-BTK(C481S) cells; 72 h) | also measured
18 | CN1CCN([C@@H]2CCCN(c3cnc(C(N)=O)c(Nc4ccc(C5CCN(C[C@H]6CCN(c7ccc8c(C9CCC(=O)NC9=O)noc8c7)C6)CC5)cc4)n3)C2)C1=O (stereo partly drawn) [Compound 1] | 99% |  | 35 nM | DC50 (BTK): < 0.098 nM; IC50 (OCI-LY10 cells): < 0.31 nM
19 | CN1CCN([C@@H]2CCCN(c3cnc(C(N)=O)c(Nc4ccc(C5CCN(C[C@H]6CCN(c7cccc8c(C9CCC(=O)NC9=O)noc78)C6)CC5)cc4)n3)C2)C1=O (stereo partly drawn) [Compound 2] | 99% |  | 18 nM | DC50 (BTK): < 0.098 nM
20 | CN1CCN([C@@H]2CCCN(c3cnc(C(N)=O)c(Nc4ccc(C5CCN(C[C@H]6CCN(c7cc8onc(C9CCC(=O)NC9=O)c8cc7F)C6)CC5)cc4)n3)C2)C1=O (stereo partly drawn) [Compound 3] | 99% |  |  | DC50 (BTK): < 0.098 nM; IC50 (OCI-LY10 cells): < 0.31 nM
21 | CN1CCN([C@@H]2CCCN(c3cnc(C(N)=O)c(Nc4ccc(C5CCN(C[C@H]6CCN(c7ccc8onc(C9CCC(=O)NC9=O)c8c7)C6)CC5)cc4)n3)C2)C1=O (stereo partly drawn) [Compound 4] |  |  | 27 nM | 
22 | CN1CCN([C@@H]2CCCN(c3cnc(C(N)=O)c(Nc4ccc(C5CCN(C[C@H]6CCC(c7ccc8c(C9CCC(=O)NC9=O)noc8c7)C6)CC5)cc4)n3)C2)C1=O (stereo partly drawn) [Compound 6] | 99% |  | 27 nM | DC50 (BTK): < 0.098 nM; IC50 (OCI-LY10 cells): < 0.31 nM
23 | CN1CCN([C@@H]2CCCN(c3cnc(C(N)=O)c(Nc4ccc(C5CCC6(CC5)CN(C5CN(c7ccc8c(C9CCC(=O)NC9=O)noc8c7)C5)C6)cc4)n3)C2)C1=O (stereo partly drawn) [Compound 12] |  | 99% |  | DC50 (BTK): 0.098 nM
24 | NC(=O)c1ncc(N2CCCCC2)nc1Nc1ccc(N2CCC(N3Cc4ccc5c(C6CCC(=O)NC6=O)noc5c4C3)CC2)cc1 (stereo not drawn) [Compound 31] | > 90% |  |  | 
25 | CN1CCN([C@@H]2CCCN(c3cnc(C(N)=O)c(Nc4ccc5c(c4)CN(CC4Cc6ccc7c(C8CCC(=O)NC8=O)noc7c6C4)C5)n3)C2)C1=O (stereo partly drawn) [Compound 45] |  | >90% |  | 
26 | CN1CCN([C@@H]2CCCN(c3cnc(C(N)=O)c(Nc4ccc(C5C[C@@H]6CN(CC7Cc8ccc9c(C%10CCC(=O)NC%10=O)noc9c8C7)C[C@@H]6C5)cc4)n3)C2)C1=O (stereo partly drawn) [Compound 48] | > 90% |  | 5.7 nM | 
27 | NC(=O)c1ncc(N2CCCCC2)nc1Nc1ccc(N2CCC(N3CCc4ccc5c(C6CCC(=O)NC6=O)noc5c4C3)CC2)cc1 (stereo not drawn) [Compound 60] |  |  | 9.4 nM | 
28 | NC(=O)c1ncc(N2CCCCC2)nc1Nc1ccc(N2CCC(N3CCc4c(ccc5c(C6CCC(=O)NC6=O)noc45)C3)CC2)cc1 (stereo not drawn) [Compound 61] |  |  | 13 nM | 
29 | NC(=O)c1ncc(N2CCCCC2)nc1Nc1ccc(C2CCC(N3CCc4ccc5c(C6CCC(=O)NC6=O)noc5c4CC3)CC2)cc1 (stereo not drawn) [Compound 67] |  |  |  | IC50 (TMD8-BTK(C481S) cells): 32 nM
30 | NC(=O)c1ncc(N2CCCCC2)nc1Nc1ccc(C2CCN(C3Cc4ccc5c(C6CCC(=O)NC6=O)noc5c4C3)CC2)cc1 (stereo not drawn) [Compound 70] |  |  |  | IC50 (TMD8-BTK(C481S) cells): 15 nM
31 | NC(=O)c1ncc(N2CCCCC2)nc1Nc1ccc(C2CCC(CN3CCc4ccc5c(C6CCC(=O)NC6=O)noc5c4CC3)CC2)cc1 (stereo not drawn) [Compound 74] |  |  |  | IC50 (TMD8-BTK(C481S) cells): 23 nM
32 | NC(=O)c1ncc(N2CCCCC2)nc1Nc1ccc(C2CCN(CC3Cc4ccc5c(C6CCC(=O)NC6=O)noc5c4C3)CC2)cc1 (stereo not drawn) [Compound 75] |  |  | 9.8 nM | 
